Consider 9 compounds from patent US20250090699A1, “FAP TARGETING CYCLIC PEPTIDES AND CONJUGATES THEREOF” (Novartis AG, priority 2023, published 2025).

Structures can show the parent of a compound that is named as a salt. Starred links: 1 amine or outer side, 2 acyl side, 3 side chain; linkers in the order of their positions; H or OH if unused. Non-standard residues stand in square brackets, D forms with d. Residues, ends and D or L forms follow the SMILES beside them. Groups on a side chain read outwards from the residue. *: point of attachment. X8 = O=C(O)CN1CCN(CC(=O)O)CCN(CC(=O)O)C(Cc2ccc(NC(=S)*)cc2)CN(CC(=O)O)CC1; X9 = O=C(O)CN1CCN(CC(=O)O)CCN([C@H](CCC(=O)*)C(=O)O)CCN(CC(=O)O)CC1; AAZTA5 = O=C(O)CN1CCN(CC(=O)O)CC(CCCCC(=O)*)(N(CC(=O)O)CC(=O)O)C1; DOTA = O=C(O)CN1CCN(CC(=O)O)CCN(CC(=O)*)CCN(CC(=O)O)CC1; NODAGA = O=C(O)CN1CCN(CC(=O)O)CCN(C(CCC(=O)*)C(=O)O)CC1; NOTA = O=C(O)CN1CCN(CC(=O)O)CCN(CC(=O)*)CC1; Phe(4-CH2NH2) = NCc1ccc(C[C@H](N)C(=O)O)cc1; Piperazinyl(4-CH2COOH) = O=C(O)CN1CCN(*)CC1; AEF = NCCOc1ccc(C[C@H](N)C(=O)O)cc1; NMeF = CN[C@@H](Cc1ccccc1)C(=O)O; Aoc(2) = CCCCCC[C@H](N)C(=O)O; Ahp(2) = CCCCC[C@H](N)C(=O)O; hSer = N[C@@H](CCO)C(=O)O; AEEA = NCCOCCOCC(=O)O; CO = O=C([*:1])[*:2]; Propyl = CCC*

Assay [1] addresses T1, human FAP (Homo sapiens, UniProt Q12884).
T1 construct: the biotinylated His, Avi tag, human FAP (26-760, FAP-H82Q6); His; Avi tag (biotinylated); purchased AcroBiosystems FAP-H82Q6
T1 sequence (Q12884 26-760): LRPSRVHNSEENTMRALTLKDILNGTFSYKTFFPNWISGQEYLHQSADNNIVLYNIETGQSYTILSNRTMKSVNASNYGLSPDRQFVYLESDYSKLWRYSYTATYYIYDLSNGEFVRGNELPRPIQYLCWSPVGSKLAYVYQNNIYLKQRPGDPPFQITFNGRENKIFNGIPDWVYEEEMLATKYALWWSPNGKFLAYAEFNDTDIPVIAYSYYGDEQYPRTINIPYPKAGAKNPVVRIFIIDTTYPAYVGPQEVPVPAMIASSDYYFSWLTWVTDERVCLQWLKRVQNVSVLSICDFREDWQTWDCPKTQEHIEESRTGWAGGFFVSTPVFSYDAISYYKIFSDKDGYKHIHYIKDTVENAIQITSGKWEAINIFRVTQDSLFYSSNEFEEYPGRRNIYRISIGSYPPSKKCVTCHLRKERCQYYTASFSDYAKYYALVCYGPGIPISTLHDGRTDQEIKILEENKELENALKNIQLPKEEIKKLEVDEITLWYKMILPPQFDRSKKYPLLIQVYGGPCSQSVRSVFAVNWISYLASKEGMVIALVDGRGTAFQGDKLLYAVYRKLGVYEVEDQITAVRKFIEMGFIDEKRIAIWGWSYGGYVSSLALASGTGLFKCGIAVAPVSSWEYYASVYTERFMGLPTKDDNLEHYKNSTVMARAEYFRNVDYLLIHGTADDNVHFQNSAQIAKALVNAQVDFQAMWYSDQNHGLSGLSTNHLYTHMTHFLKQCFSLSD
Nature of the assay: Enzymatic FAP competition assay (Z-Gly-Pro-AMC fluorescence), human FAP. The format is biochemical. To be noted: read-out: h. FAP, Enz., IC50. The method, boiled down: (§1)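 IC50 values come from curve fitting of duplicate % inhibition data on AMC fluorescence (ex 380, em 460 nm) after 4 h at 22-24° C with 50 μM Z-Gly-Pro-AMC. Beforehand, peptides up to 1 μM (14 levels) sat 24 h with 0.01 nM human (26-760) or mouse (26-761) tagged FAP in phosphate buffer pH 7.5, NaCl, Tween20, 1% DMSO.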

Assay [2] addresses T2, mouse FAP (Mus musculus, UniProt P97321).
T2 construct: biotinylated His, Avi tag, mouse FAP (26-761, FAP-M82Q5); His; Avi tag (biotinylated); purchased AcroBiosystems FAP-M82Q5
T2 sequence (P97321 26-761): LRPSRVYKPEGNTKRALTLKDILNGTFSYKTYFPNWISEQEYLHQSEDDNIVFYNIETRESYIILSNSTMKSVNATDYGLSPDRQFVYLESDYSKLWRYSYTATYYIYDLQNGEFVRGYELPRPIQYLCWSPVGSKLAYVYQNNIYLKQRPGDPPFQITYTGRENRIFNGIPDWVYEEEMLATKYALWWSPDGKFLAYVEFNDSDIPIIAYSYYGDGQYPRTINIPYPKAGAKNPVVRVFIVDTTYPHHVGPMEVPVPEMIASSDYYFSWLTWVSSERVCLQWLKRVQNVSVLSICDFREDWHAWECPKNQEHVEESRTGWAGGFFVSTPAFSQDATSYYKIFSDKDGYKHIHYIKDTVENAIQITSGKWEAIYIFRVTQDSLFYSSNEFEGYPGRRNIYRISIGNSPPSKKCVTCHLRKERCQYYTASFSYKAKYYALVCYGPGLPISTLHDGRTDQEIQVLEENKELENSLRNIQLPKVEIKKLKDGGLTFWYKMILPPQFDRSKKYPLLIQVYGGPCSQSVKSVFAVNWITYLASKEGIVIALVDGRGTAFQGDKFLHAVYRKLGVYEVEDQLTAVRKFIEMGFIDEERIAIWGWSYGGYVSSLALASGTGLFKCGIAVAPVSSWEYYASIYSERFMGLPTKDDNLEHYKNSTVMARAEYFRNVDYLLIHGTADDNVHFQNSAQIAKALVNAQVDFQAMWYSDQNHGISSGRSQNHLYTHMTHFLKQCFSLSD
Briefly: Enzymatic FAP competition assay (Z-Gly-Pro-AMC fluorescence), mouse FAP. The format is biochemical. To be noted: read-out: m. FAP, Enz., IC50. The method, boiled down:
as §1

In assay [3] the target is T2, mouse FAP. Briefly: Surface plasmon resonance (SPR) for peptide affinity, mouse FAP. The class given is binding. The method, boiled down: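 KD values come from a 1:1 kinetic fit of single-cycle SPR data: 8 peptide concentrations, 25 °C, 30 μL/min, HEPES-buffered saline pH 7.6 with 2% DMSO. Targets were His/Avi-tagged human (26-760) or mouse (26-761) FAP, amine-coupled to CM5 or held on a CAPture chip.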
In general terms: SPR reads the build-up and loss of mass on a sensor chip optically.

A word on the IC50: it is the point on the concentration scale where inhibition reaches its midpoint. For orientation: Kd means the concentration at which binding is half-saturated. The low end stands for a tighter complex, the high end for a looser complex. With `CCCCC[C@@H]1NC(=O)[C@H](Cc2ccc(OCCNC(=O)CN3CCN(CC(=O)O)CCN(CC(=O)O)CCN(CC(=O)O)CC3)cc2)NC(=O)[C@H](Cc2ccccc2)N(C)C(=O)CNC(=O)[C@H](CCO)NC(=O)[C@H]2CCCN2C(=O)[C@H](CC(=O)O)NC(=O)[C@H](Cc2ccc(O)cc2)NC(=O)CNC(=O)[C@H](Cc2c[nH]c3ccccc23)NC1=O` [Example B26, hSer-Gly-NMePhe-F(4OEtNHDOTA)-Ahp-Trp-Gly-Tyr-Asp-D-Pro, TFA salt] (cyclo([hSer]G[NMeF][AEF](DOTA)[Ahp(2)]WGYD[dP])), the IC50 in assay [1] was 0.027 nM; in assay [2] it was 0.117 nM. Moreover, in assay [3], binding was put at a Kd of 0.105 nM.
In the same order, the values of `CCCCC[C@@H]1NC(=O)[C@H](Cc2ccc(OCCNC(=O)CC[C@H](C(=O)O)N3CCN(CC(=O)O)CCN(CC(=O)O)CCN(CC(=O)O)CC3)cc2)NC(=O)[C@H](Cc2ccccc2)N(C)C(=O)CNC(=O)CNC(=O)[C@H]2CCCN2C(=O)[C@H](CC(=O)O)NC(=O)[C@H](Cc2ccc(O)cc2)NC(=O)CNC(=O)[C@H](Cc2c[nH]c3ccccc23)NC1=O` [Example B30, Gly-Gly-NMePhe-F(4OEtNHRDOTAGA)-Ahp-Trp-Gly-Tyr-Asp-D-Pro] (cyclo([AEF](X9)[Ahp(2)]WGYD[dP]GG[NMeF])) are 0.019 nM, 0.118 nM and 0.119 nM.
Taken in the same sequence, the figures for `CCCOCC[C@@H]1NC(=O)[C@H](Cc2ccc(CNC(=O)COCCOCCNC(=O)CCCCC3(N(CC(=O)O)CC(=O)O)CN(CC(=O)O)CCN(CC(=O)O)C3)cc2)NC(=O)[C@H](Cc2ccccc2)N(C)C(=O)CNC(=O)CNC(=O)[C@H]2CCCN2C(=O)[C@H](CC(=O)O)NC(=O)[C@H](CCCCNC(=O)N2CCN(CC(=O)O)CC2)NC(=O)CNC(=O)[C@H](Cc2c[nH]c3ccccc23)NC1=O` [Example B31, Gly-Gly-NMePhe-F(4amPEG2NHAAZTA)-hS(Pr)-Trp-Gly-K(COpipzaa)-Asp-D-Pro] (cyclo(D[dP]GG[NMeF][Phe(4-CH2NH2)]([AEEA-AAZTA5])[hSer](Propyl)WGK([CO-Piperazinyl(4-CH2COOH)]))) were 0.03 nM, 0.1 nM and 0.25 nM.
Taken in the same sequence, the figures for `CCCOCC[C@@H]1NC(=O)[C@H](Cc2ccc(CNC(=O)COCCOCCNC(=O)CCC(C(=O)O)N3CCN(CC(=O)O)CCN(CC(=O)O)CC3)cc2)NC(=O)[C@H](Cc2ccccc2)N(C)C(=O)CNC(=O)CNC(=O)[C@H]2CCCN2C(=O)[C@H](CC(=O)O)NC(=O)[C@H](CCCCNC(=O)N2CCN(CC(=O)O)CC2)NC(=O)CNC(=O)[C@H](Cc2c[nH]c3ccccc23)NC1=O` (stereo partly drawn) [Example B33, Gly-Gly-NMePhe-F(4amPEG2NHNODAGA)-hS(pr)-Trp-Gly-K(COpipzaa)-Asp-D-Pro] (cyclo(D[dP]GG[NMeF][Phe(4-CH2NH2)]([AEEA-NODAGA])[hSer](Propyl)WGK([CO-Piperazinyl(4-CH2COOH)]))) were 0.015 nM, 0.039 nM and less than 0.034 nM.
For `CCCOCC[C@@H]1NC(=O)[C@H](Cc2ccc(CNC(=O)COCCOCCNC(=O)CN3CCN(CC(=O)O)CCN(CC(=O)O)CC3)cc2)NC(=O)[C@H](Cc2ccccc2)N(C)C(=O)CNC(=O)CNC(=O)[C@H]2CCCN2C(=O)[C@H](CC(=O)O)NC(=O)[C@H](CCCCNC(=O)N2CCN(CC(=O)O)CC2)NC(=O)CNC(=O)[C@H](Cc2c[nH]c3ccccc23)NC1=O` [Example B34, Gly-Gly-NMePhe-F(4amPEG2NHNOTA-hS(Pr)-Trp-Gly-K(COpipzaa)-Asp-D-Pro] (cyclo(D[dP]GG[NMeF][Phe(4-CH2NH2)]([AEEA-NOTA])[hSer](Propyl)WGK([CO-Piperazinyl(4-CH2COOH)]))), the values for the half-maximal inhibitory concentration (IC50) in assay [1] and in assay [2] were 0.007 nM and 0.017 nM, respectively. In addition, the Kd in assay [3] was less than 0.034 nM.
In the same order, the values of `CCCOCC[C@@H]1NC(=O)[C@H](Cc2ccc(CNC(=O)COCCOCCNC(=S)Nc3ccc(CC4CN(CC(=O)O)CCN(CC(=O)O)CCN(CC(=O)O)CCN4CC(=O)O)cc3)cc2)NC(=O)[C@H](Cc2ccccc2)N(C)C(=O)CNC(=O)CNC(=O)[C@H]2CCCN2C(=O)[C@H](CC(=O)O)NC(=O)[C@H](CCCCNC(=O)N2CCN(CC(=O)O)CC2)NC(=O)CNC(=O)[C@H](Cc2c[nH]c3ccccc23)NC1=O` (stereo partly drawn) [Example B35, Gly-Gly-NMePhe-F(4amPEG2NH-p-SCN-DOTA-hS(Pr)-Trp-Gly-K(COpipzaa)-Asp-D-Pro] (cyclo(D[dP]GG[NMeF][Phe(4-CH2NH2)]([AEEA-X8])[hSer](Propyl)WGK([CO-Piperazinyl(4-CH2COOH)]))) are 0.021 nM, 0.055 nM and 0.059 nM.
In the same order, the values of `CCCCCC[C@@H]1NC(=O)[C@H](Cc2ccc(CNC(=O)COCCOCCNC(=S)Nc3ccc(CC4CN(CC(=O)O)CCN(CC(=O)O)CCN(CC(=O)O)CCN4CC(=O)O)cc3)cc2)NC(=O)[C@H](Cc2ccccc2)N(C)C(=O)CNC(=O)CNC(=O)[C@H]2CCCN2C(=O)[C@H](CC(=O)O)NC(=O)[C@H](CCCCNC(=O)N2CCN(CC(=O)O)CC2)NC(=O)CNC(=O)[C@H](Cc2c[nH]c3ccccc23)NC1=O` (stereo partly drawn) [Example B37, Gly-Gly-NMePhe-F(4amPEG2NH-p-SCN-DOTA-Aoc-Trp-Gly-K(COpipzaa)-Asp-D-Pro] are 0.017 nM, 0.042 nM and less than 0.022 nM.
In the same order, the values of `CCCCCC[C@@H]1NC(=O)[C@H](Cc2ccc(CNC(=O)COCCOCCNC(=O)CCC(C(=O)O)N3CCN(CC(=O)O)CCN(CC(=O)O)CC3)cc2)NC(=O)[C@H](Cc2ccccc2)N(C)C(=O)CNC(=O)CNC(=O)[C@H]2CCCN2C(=O)[C@H](CC(=O)O)NC(=O)[C@H](CCCCNC(=O)N2CCN(CC(=O)O)CC2)NC(=O)CNC(=O)[C@H](Cc2c[nH]c3ccccc23)NC1=O` (stereo partly drawn) [Example B38, Gly-Gly-NMePhe-F(4amPEG2NHNODAGA)-Aoc-Trp-Gly-K(COpipzaa)-Asp-D-Pro] are 0.031 nM, 0.073 nM and less than 0.076 nM.
As to `CCCCCC[C@@H]1NC(=O)[C@H](Cc2ccc(CNC(=O)COCCOCCNC(=O)CN3CCN(CC(=O)O)CCN(CC(=O)O)CC3)cc2)NC(=O)[C@H](Cc2ccccc2)N(C)C(=O)CNC(=O)CNC(=O)[C@H]2CCCN2C(=O)[C@H](CC(=O)O)NC(=O)[C@H](CCCCNC(=O)N2CCN(CC(=O)O)CC2)NC(=O)CNC(=O)[C@H](Cc2c[nH]c3ccccc23)NC1=O` [Example B40, Gly-Gly-NMePhe-F(4amPEG2NHNOTA)-Aoc-Trp-Gly-K(COpipzaa)-Asp-D-Pro] (cyclo(GG[NMeF][Phe(4-CH2NH2)]([AEEA-NOTA])[Aoc(2)]WGK([CO-Piperazinyl(4-CH2COOH)])D[dP])), the 50% inhibitory concentration (IC50) came out at 0.006 nM in assay [1] and 0.012 nM in assay [2]. This compound also gave a dissociation constant (Kd) in assay [3] of less than 0.024 nM.
